According to patent US20230278984A1 (Global Blood Therapeutics, Inc., priority 2020, published 2023):

Biological target: T1, Human pyruvate kinase R (PKR) (Homo sapiens, UniProt P30613)
T1 construct: Human pyruvate kinase R (PKR), residues 14-574; 6x-His (N, cleaved yes); 8x-Arg (N, cleaved yes); SUMO (N, cleaved yes); host or cells: E. coli
Experiment: Biochemical assay for activation of pyruvate kinase R (Kinase-Glo luminescence measurement of ATP generation)
Settings: for AC50: PKR biochemical assay, 0.1 nM PKR, 0.3 mM ADP, 2 mM FBP, 0.1 mM PEP; for Emax: maximal activation level relative to the activation level achieved by the literature compound AG-348 @ 10 μM
Method in brief: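 Recombinant human PKR (residues 14-574), E. coli-expressed with His-Arg-SUMO tag removed, purified by Ni-NTA, anion exchange and size exclusion. Activation measured as ATP generation via Kinase-Glo luminescence.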

T1 sequence (P30613 14-574): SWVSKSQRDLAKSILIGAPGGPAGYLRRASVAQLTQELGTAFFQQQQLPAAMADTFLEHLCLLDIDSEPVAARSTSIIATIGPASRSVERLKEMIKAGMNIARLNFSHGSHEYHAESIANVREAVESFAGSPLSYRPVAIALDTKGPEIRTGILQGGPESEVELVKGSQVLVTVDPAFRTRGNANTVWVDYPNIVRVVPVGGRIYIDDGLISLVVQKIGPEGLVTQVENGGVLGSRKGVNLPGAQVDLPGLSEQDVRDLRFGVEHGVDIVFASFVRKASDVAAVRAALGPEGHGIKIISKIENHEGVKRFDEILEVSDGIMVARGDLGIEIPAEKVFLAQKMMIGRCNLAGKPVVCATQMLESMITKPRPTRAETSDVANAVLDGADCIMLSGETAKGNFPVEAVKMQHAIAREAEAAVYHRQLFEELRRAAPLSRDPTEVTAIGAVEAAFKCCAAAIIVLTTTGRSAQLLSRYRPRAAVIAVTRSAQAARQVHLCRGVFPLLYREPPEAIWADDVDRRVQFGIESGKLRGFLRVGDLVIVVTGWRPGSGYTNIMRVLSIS

SMILES | AC50 | Emax
O=C(NCc1ncnn1-c1ccc2cccnc2c1)NCc1nnnn1-c1ccc(Cl)c(F)c1 [Compound 80, 1-{[1-(4-chloro-3-fluorophenyl)-1H-1,2,3,4-tetrazol-5-yl]methyl}-3-{[1-(quinolin-7-yl)-1H-1,2,4-triazol-5-yl]methyl}urea] | 200 nM | 106%
O=C(NCc1ncnn1-c1ccc2cccnc2c1)NCc1ncnn1-c1ccc2cccnc2c1 [Compound 81, 1,3-bis({[1-(quinolin-7-yl)-1H-1,2,4-triazol-5-yl]methyl})urea] | 280 nM | 64%
Cc1nc(CNC(=O)NCc2ncnn2-c2ccc3cnccc3c2)n(-c2ccc(Cl)c(F)c2)n1 [Compound 82, 1-{[1-(4-chloro-3-fluorophenyl)-3-methyl-1H-1,2,4-triazol-5-yl]methyl}-3-{[1-(isoquinolin-6-yl)-1H-1,2,4-triazol-5-yl]methyl}urea] | 270 nM | 85%
O=C(NCc1ncnn1-c1ccc2cccnc2c1)NCc1nc(C2CC2)nn1-c1ccc(Cl)c(F)c1 [Compound 83, 1-{[1-(4-chloro-3-fluorophenyl)-3-cyclopropyl-1H-1,2,4-triazol-5-yl]methyl}-3-{[1-(quinolin-7-yl)-1H-1,2,4-triazol-5-yl]methyl}urea] | 72 nM | 83%
Cc1nc(CNC(=O)NCc2nc(C)nn2-c2ccc3cccnc3c2)n(-c2ccc3cccnc3c2)n1 [Compound 84, 1,3-bis({[3-methyl-1-(quinolin-7-yl)-1H-1,2,4-triazol-5-yl]methyl})urea] | 520 nM | 94%
Cc1nc(CNC(=O)NCc2ncnn2-c2ccc(Cl)c(F)c2)n(-c2ccc3cccnc3c2)n1 [Compound 85, 1-{[1-(4-chloro-3-fluorophenyl)-1H-1,2,4-triazol-5-yl]methyl}-3-{[3-methyl-1-(quinolin-7-yl)-1H-1,2,4-triazol-5-yl]methyl}urea] | 36 nM | 67%
Cc1nc(CNC(=O)NCc2nnnn2-c2ccc(Cl)c(F)c2)n(-c2ccc3cccnc3c2)n1 [Compound 86, 1-{[1-(4-chloro-3-fluorophenyl)-1H-1,2,3,4-tetrazol-5-yl]methyl}-3-{[3-methyl-1-(quinolin-7-yl)-1H-1,2,4-triazol-5-yl]methyl}urea] | 66 nM | 90%
Cc1nc(CNC(=O)NCc2nc(C)nn2-c2ccc3cccnc3c2)n(-c2ccc(Cl)c(F)c2)n1 [Compound 87, 1-{[1-(4-chloro-3-fluorophenyl)-3-methyl-1H-1,2,4-triazol-5-yl]methyl}-3-{[3-methyl-1-(quinolin-7-yl)-1H-1,2,4-triazol-5-yl]methyl}urea] | 83 nM | 87%
Cc1nc(CNC(=O)NCc2ncnn2-c2ccc3cncnc3c2)n(-c2ccc(Cl)c(F)c2)n1 [Compound 88, 1-{[1-(4-chloro-3-fluorophenyl)-3-methyl-1H-1,2,4-triazol-5-yl]methyl}-3-{[1-(quinazolin-7-yl)-1H-1,2,4-triazol-5-yl]methyl}urea] | 70 nM | 68%
Cc1nc(CNC(=O)NCc2n[nH]c(=O)n2-c2ccc(Cl)c(F)c2)n(-c2ccc(Cl)c(F)c2)n1 [Compound 89, 1-{[1-(4-chloro-3-fluorophenyl)-3-methyl-1H-1,2,4-triazol-5-yl]methyl}-3-{[4-(4-chloro-3-fluorophenyl)-5-oxo-4,5-dihydro-1H-1,2,4-triazol-3-yl]methyl}urea] | 31 nM | 91%
Cc1nc(CNC(=O)NCc2nn(C)c(=O)n2-c2ccc(Cl)c(F)c2)n(-c2ccc(Cl)c(F)c2)n1 [Compound 90, 3-{[4-(4-chloro-3-fluorophenyl)-1-methyl-5-oxo-4,5-dihydro-1H-1,2,4-triazol-3-yl]methyl}-1-{[1-(4-chloro-3-fluorophenyl)-3-methyl-1H-1,2,4-triazol-5-yl]methyl}urea] | 40 nM | 97%
O=C(NCc1ncnn1-c1ccc(Cl)c(F)c1)NCc1nc(C2CC2)nn1-c1ccc2cccnc2c1 [Compound 91, 1-{[1-(4-chloro-3-fluorophenyl)-1H-1,2,4-triazol-5-yl]methyl}-3-{[3-cyclopropyl-1-(quinolin-7-yl)-1H-1,2,4-triazol-5-yl]methyl}urea] | 49 nM | 61%
CCc1nc(CNC(=O)NCc2ncnn2-c2ccc(Cl)c(F)c2)n(-c2ccc3cccnc3c2)n1 [Compound 92, 1-{[1-(4-chloro-3-fluorophenyl)-1H-1,2,4-triazol-5-yl]methyl}-3-{[3-ethyl-1-(quinolin-7-yl)-1H-1,2,4-triazol-5-yl]methyl}urea] | 52 nM | 72%
Cc1nc(CNC(=O)NCc2nc(CO)nn2-c2ccc(Cl)c(F)c2)n(-c2ccc3cccnc3c2)n1 [Compound 93, 1-{[1-(4-chloro-3-fluorophenyl)-3-(hydroxymethyl)-1H-1,2,4-triazol-5-yl]methyl}-3-{[3-methyl-1-(quinolin-7-yl)-1H-1,2,4-triazol-5-yl]methyl}urea] | 150 nM | 100%
Cc1nc(CNC(=O)NCc2nc(CCO)nn2-c2ccc(Cl)c(F)c2)n(-c2ccc3cccnc3c2)n1 [Compound 94, 1-{[1-(4-chloro-3-fluorophenyl)-3-(2-hydroxyethyl)-1H-1,2,4-triazol-5-yl]methyl}-3-{[3-methyl-1-(quinolin-7-yl)-1H-1,2,4-triazol-5-yl]methyl}urea] | 730 nM | 87%
COC(=O)c1cc(-n2nc(C)nc2CNC(=O)NCc2nc(C)nn2-c2ccc(Cl)c(F)c2)ccc1Cl [Compound 95, methyl 2-chloro-5-(5-{[({[1-(4-chloro-3-fluorophenyl)-3-methyl-1H-1,2,4-triazol-5-yl]methyl}carbamoyl)amino]methyl}-3-methyl-1H-1,2,4-triazol-1-yl)benzoate] | 68 nM | 87%
Cc1nc(CNC(=O)NCc2nc(C)nn2-c2ccc(Cl)c(CO)c2)n(-c2ccc(Cl)c(F)c2)n1 [Compound 96, 1-({1-[4-chloro-3-(hydroxymethyl)phenyl]-3-methyl-1H-1,2,4-triazol-5-yl}methyl)-3-{[1-(4-chloro-3-fluorophenyl)-3-methyl-1H-1,2,4-triazol-5-yl]methyl}urea] | 34 nM | 100%
COCCc1nc(CNC(=O)NCc2ncnn2-c2ccc3cccnc3c2)n(-c2ccc(Cl)c(F)c2)n1 [Compound 97, 1-{[1-(4-chloro-3-fluorophenyl)-3-(2-methoxyethyl)-1H-1,2,4-triazol-5-yl]methyl}-3-{[1-(quinolin-7-yl)-1H-1,2,4-triazol-5-yl]methyl}urea] | 510 nM | 92%
O=C(NCc1ncnn1-c1ccc2cccnc2c1)NCc1n[nH]c(=O)n1-c1ccc(Cl)c(F)c1 [Compound 98, 3-{[4-(4-chloro-3-fluorophenyl)-5-oxo-4,5-dihydro-1H-1,2,4-triazol-3-yl]methyl}-1-{[1-(quinolin-7-yl)-1H-1,2,4-triazol-5-yl]methyl}urea] | 71 nM | 60%
CNCc1cc(-n2nc(C)nc2CNC(=O)NCc2nc(C)nn2-c2ccc(Cl)c(F)c2)ccc1Cl [Compound 99, 1-[(1-{4-chloro-3-[(methylamino)methyl]phenyl}-3-methyl-1H-1,2,4-triazol-5-yl)methyl]-3-{[1-(4-chloro-3-fluorophenyl)-3-methyl-1H-1,2,4-triazol-5-yl]methyl}urea] | 69 nM | 69%
COCCc1nc(CNC(=O)NCc2nc(C)nn2-c2ccc3cccnc3c2)n(-c2ccc(Cl)c(F)c2)n1 [Compound 100] | 510 nM | 106%
Cc1nc(CNC(=O)NCc2ncnn2-c2cc(F)c3nccnc3c2)n(-c2ccc(Cl)c(F)c2)n1 [Compound 101, 1-{[1-(4-chloro-3-fluorophenyl)-3-methyl-1H-1,2,4-triazol-5-yl]methyl}-3-{[1-(8-fluoroquinoxalin-6-yl)-1H-1,2,4-triazol-5-yl]methyl}urea] | 93 nM | 77%
Cc1nc(CNC(=O)NCc2ncnn2-c2cc(F)c3ncccc3c2)n(-c2ccc(Cl)c(F)c2)n1 [Compound 102] | 35 nM | 71%
Cc1nc(CNC(=O)NCc2ncnn2-c2cc(C)c3nccnc3c2)n(-c2ccc(Cl)c(F)c2)n1 [Compound 103, 1-{[1-(4-chloro-3-fluorophenyl)-3-methyl-1H-1,2,4-triazol-5-yl]methyl}-3-{[1-(8-methylquinoxalin-6-yl)-1H-1,2,4-triazol-5-yl]methyl}urea] | 110 nM | 73%
O=C(NCc1ncnn1-c1ccc2cccnc2c1)NCc1nc(CF)nn1-c1ccc(Cl)c(F)c1 [Compound 104, 1-{[1-(4-chloro-3-fluorophenyl)-3-(fluoromethyl)-1H-1,2,4-triazol-5-yl]methyl}-3-{[1-(quinolin-7-yl)-1H-1,2,4-triazol-5-yl]methyl}urea] | 36 nM | 80%
Cc1nc(CNC(=O)NCc2ncnn2-c2cc(C)c3cncnc3c2)n(-c2ccc(Cl)c(F)c2)n1 [Compound 105, 1-{[1-(4-chloro-3-fluorophenyl)-3-methyl-1H-1,2,4-triazol-5-yl]methyl}-3-{[1-(5-methylquinazolin-7-yl)-1H-1,2,4-triazol-5-yl]methyl}urea] | 880 nM | 59%
Cc1nc(CNC(=O)NCC2=NC3(CC3)C(=O)N2Cc2ccc(F)cc2)n(-c2ccc(Cl)c(F)c2)n1 [Compound 106, 1-{[1-(4-chloro-3-fluorophenyl)-3-methyl-1H-1,2,4-triazol-5-yl]methyl}-3-({6-[(4-fluorophenyl)methyl]-7-oxo-4,6-diazaspiro[2.4]hept-4-en-5-yl}methyl)urea] | 71 nM | 125%
